This note sets out measurements from patent USRE44733E1, “6-mercapto-cyclodextrin derivatives:reversal agents for drug-induced neuromuscular block” (Merck Sharp & Dohme B.V., priority 1999, dated 2014).

The experiment has as its system neuromuscular block, induced by the muscle relaxant rocuronium bromide (Roc). The experiment in a line: Reversal of neuromuscular blockade in anaesthetized guinea pigs in vivo. The settings on record: for concentration at maximum reversal (at conc.) / % max reversal: anaesthetized guinea pigs, rocuronium bromide steady-state block; for concentration at maximum reversal (at conc.): dose of reversal agent at which % max reversal was seen; for % max reversal: maximum reversal; for ED50: dose producing 50% reversal of steady-state neuromuscular block: anaesthetized male Dunkin-Hartley guinea pigs, steady-state block of 85-90% by continuous rocuronium bromide infusion, reversal agent given by jugular vein catheter, M. gastrocnemius contractions. On the procedure:
Reversal of Neuromuscular Blockade in Anaesthetized Guinea Pigs in vivo
Male Dunkin-Hartley guinea pigs (bodyweight: 600-900 g) were anaesthetized by i.p. administration of 10 mg/kg pentobarbitone and 1000 mg/kg urethane. After tracheotomy, the animals were artificially ventilated using a Harvard small animal ventilator. A catheter was placed into the carotid artery for continuous monitoring of arterial blood pressure and the taking of blood samples for blood gas analysis. Heart rate was derived from the blood pressure signal. The sciatic nerve was stimulated (rectangular pulses of 0.5 ms duration at 10 s (0.1 Hz) intervals at a supramaximal voltage, using a Grass S88 Stimulator) and the force of M. gastrocnemius contractions was measured using a Grass FT03 force-displacement transducer. Contractions, blood pressure and heart rate were recorded on a multichannel Grass 7D recorder. Catheters were placed in both jugular veins. One catheter was used for the continuous infusion of a neuromuscular blocking agent. The infusion rate of the neuromuscular blocking agent was increased until a steady-state block of 85-90% was obtained. The other catheter was used for administration of increasing doses of the reversal agent. During continuous infusion of the neuromuscular blocking agent, single doses of increasing concentration of reversal agent were given. At the end of the experiment, the measured force of muscle contractions was plotted against the concentration of reversal agent, and using regression analysis techniques, the 50% reversal concentration was calculated. Results for the reversal of the neuromuscular block, induced by the muscle relaxant rocuronium bromide (Roc), by the 6-mercapto-cyclodextrin derivatives of Examples 1-19 are presented in Table I. For comparison, the reversal activity of the parent compounds β-cyclodextrin and γ-cyclodextrin are included as well.

`OC[C@H]1O[C@@H]2O[C@H]3[C@H](O)[C@@H](O)[C@@H](O[C@H]4[C@H](O)[C@@H](O)[C@@H](O[C@H]5[C@H](O)[C@@H](O)[C@@H](O[C@H]6[C@H](O)[C@@H](O)[C@@H](O[C@H]7[C@H](O)[C@@H](O)[C@@H](O[C@H]8[C@H](O)[C@@H](O)[C@@H](O[C@H]9[C@H](O)[C@@H](O)[C@@H](O[C@H]1[C@H](O)[C@H]2O)O[C@@H]9CO)O[C@@H]8CO)O[C@@H]7CO)O[C@@H]6CO)O[C@@H]5CO)O[C@@H]4CO)O[C@@H]3CO` [γ-cyclodextrin, reference compound]: the “concentration at maximum reversal (at conc.)” value (shortened to “concentration”) is given as “(47) μmol · kg^−1”, the “% max reversal” value turned out to be 104% and the “ED50: dose producing 50% reversal of steady-state neuromuscular block” value (“ED50: dose producing 50% reversal” for short) stood at 4 µmol/kg.
The corresponding values for `OC1C2OC(CSCCCc3nnn[n-]3)C(OC3OC(CSCCCc4nnn[n-]4)C(OC4OC(CSCCCc5nnn[n-]5)C(OC5OC(CSCCCc6nnn[n-]6)C(OC6OC(CSCCCc7nnn[n-]7)C(OC7OC(CSCCCc8nnn[n-]8)C(OC8OC(CSCCCc9nnn[n-]9)C(OC9OC(CSCCCc%10nnn[n-]%10)C(O2)C(O)C9O)C(O)C8O)C(O)C7O)C(O)C6O)C(O)C5O)C(O)C4O)C(O)C3O)C1O.[Na+].[Na+].[Na+].[Na+].[Na+].[Na+].[Na+].[Na+]` (stereo not drawn) [example 19, 6-Per-deoxy-6-per(3-(tetrazol-5-yl)propyl)thio-γ-cyclodextrin, Sodium Salt] are “(1.2) μmol · kg^−1”, 109% and 0.22 µmol/kg.
The corresponding values for `CNC(=O)CSCC1OC2OC3C(CSCC(=O)NC)OC(OC4C(CSCC(=O)NC)OC(OC5C(CSCC(=O)NC)OC(OC6C(CSCC(=O)NC)OC(OC7C(CSCC(=O)NC)OC(OC8C(CSCC(=O)NC)OC(OC9C(CSCC(=O)NC)OC(OC1C(O)C2O)C(O)C9O)C(O)C8O)C(O)C7O)C(O)C6O)C(O)C5O)C(O)C4O)C(O)C3O` (stereo not drawn) [example 14, 6-Per-deoxy-6-per(N-methylamidomethyl)thio-γ-cyclodextrin] are “(7.3) μmol · kg^−1”, 102% and 1.54 µmol/kg.
In the same order, the values of `O=C([O-])CCSC[C@H]1O[C@@H]2O[C@H]3[C@H](O)[C@@H](O)[C@@H](O[C@H]4[C@H](O)[C@@H](O)[C@@H](O[C@H]5[C@H](O)[C@@H](O)[C@@H](O[C@H]6[C@H](O)[C@@H](O)[C@@H](O[C@H]7[C@H](O)[C@@H](O)[C@@H](O[C@H]8[C@H](O)[C@@H](O)[C@@H](O[C@H]9[C@H](O)[C@@H](O)[C@@H](O[C@H]1[C@H](O)[C@H]2O)O[C@@H]9CSCCC(=O)[O-])O[C@@H]8CSCCC(=O)[O-])O[C@@H]7CSCCC(=O)[O-])O[C@@H]6CSCCC(=O)[O-])O[C@@H]5CSCCC(=O)[O-])O[C@@H]4CSCCC(=O)[O-])O[C@@H]3CSCCC(=O)[O-].[Na+].[Na+].[Na+].[Na+].[Na+].[Na+].[Na+].[Na+]` [example 4, 6-Per-deoxy-6-per-(2-carboxyethyl)thio-γ-cyclodextrin, Sodium Salt] are “(0.53) μmol · kg^−1”, 97% and 0.09 µmol/kg.
`OCCOCCSCC1OC2OC3C(CSCCOCCO)OC(OC4C(CSCCOCCO)OC(OC5C(CSCCOCCO)OC(OC6C(CSCCOCCO)OC(OC7C(CSCCOCCO)OC(OC8C(CSCCOCCO)OC(OC9C(CSCCOCCO)OC(OC1C(O)C2O)C(O)C9O)C(O)C8O)C(O)C7O)C(O)C6O)C(O)C5O)C(O)C4O)C(O)C3O` (stereo not drawn) [example 11, 6-Per-deoxy-6-per(5-hydroxy-3-oxa-pentyl)thio-γ-cyclodextrin]: the “concentration” value is recorded as “(2.1) μmol · kg^−1”, the “% max reversal” value amounted to 92% and the “ED50: dose producing 50% reversal” value is 0.47 µmol/kg.
The corresponding values for `O=C([O-])c1ccccc1SC[C@H]1O[C@@H]2O[C@H]3[C@H](O)[C@@H](O)[C@@H](O[C@H]4[C@H](O)[C@@H](O)[C@@H](O[C@H]5[C@H](O)[C@@H](O)[C@@H](O[C@H]6[C@H](O)[C@@H](O)[C@@H](O[C@H]7[C@H](O)[C@@H](O)[C@@H](O[C@H]8[C@H](O)[C@@H](O)[C@@H](O[C@H]9[C@H](O)[C@@H](O)[C@@H](O[C@H]1[C@H](O)[C@H]2O)O[C@@H]9CO)O[C@@H]8CO)O[C@@H]7CO)O[C@@H]6CO)O[C@@H]5CO)O[C@@H]4CO)O[C@@H]3CO.[Na+]` [example 2, 6mono-Deoxy-6-mono-(2-carboxyphenyl)thio-γ-cyclodextin, Sodium Salt] are “(11) μmol · kg^−1”, 93% and 1.30 µmol/kg.
In the same order, the values of `O=C([O-])c1cccc(SCC2OC3OC4C(CSc5cccc(C(=O)[O-])c5)OC(OC5C(CSc6cccc(C(=O)[O-])c6)OC(OC6C(CSc7cccc(C(=O)[O-])c7)OC(OC7C(CSc8cccc(C(=O)[O-])c8)OC(OC8C(CSc9cccc(C(=O)[O-])c9)OC(OC9C(CSc%10cccc(C(=O)[O-])c%10)OC(OC%10C(CSc%11cccc(C(=O)[O-])c%11)OC(OC2C(O)C3O)C(O)C%10O)C(O)C9O)C(O)C8O)C(O)C7O)C(O)C6O)C(O)C5O)C(O)C4O)c1.[Na+].[Na+].[Na+].[Na+].[Na+].[Na+].[Na+].[Na+]` (stereo not drawn) [example 3, 6-Per-deoxy-6-per-(3-carboxyphenyl)thio-γ-cyclodextrin, Sodium Salt] are “(1.28) μmol · kg^−1”, 102% and 0.28 µmol/kg.
Consider `OCCSC[C@H]1O[C@@H]2O[C@H]3[C@H](O)[C@@H](O)[C@@H](O[C@H]4[C@H](O)[C@@H](O)[C@@H](O[C@H]5[C@H](O)[C@@H](O)[C@@H](O[C@H]6[C@H](O)[C@@H](O)[C@@H](O[C@H]7[C@H](O)[C@@H](O)[C@@H](O[C@H]8[C@H](O)[C@@H](O)[C@@H](O[C@H]9[C@H](O)[C@@H](O)[C@@H](O[C@H]1[C@H](O)[C@H]2O)O[C@@H]9CSCCO)O[C@@H]8CSCCO)O[C@@H]7CSCCO)O[C@@H]6CSCCO)O[C@@H]5CSCCO)O[C@@H]4CSCCO)O[C@@H]3CSCCO` [example 13, 6-Per-deoxy-6-per(2-hydroxyethyl)thio-γ-cyclodextrin], for which the “concentration” value was “(2.0) μmol · kg^−1”, the “% max reversal” value is 96% and the “ED50: dose producing 50% reversal” value was 0.20 µmol/kg.
Consider `OC[C@H]1O[C@@H]2O[C@H]3[C@H](O)[C@@H](O)[C@@H](O[C@H]4[C@H](O)[C@@H](O)[C@@H](O[C@H]5[C@H](O)[C@@H](O)[C@@H](O[C@H]6[C@H](O)[C@@H](O)[C@@H](O[C@H]7[C@H](O)[C@@H](O)[C@@H](O[C@H]8[C@H](O)[C@@H](O)[C@@H](O[C@H]1[C@H](O)[C@H]2O)O[C@@H]8CO)O[C@@H]7CO)O[C@@H]6CO)O[C@@H]5CO)O[C@@H]4CO)O[C@@H]3CO` [β-cyclodextrin, reference compound], for which the “concentration” value was “(113) μmol · kg^−1”, the “% max reversal” value worked out at 93% and the “ED50: dose producing 50% reversal” value was 20 µmol/kg.
For the molecule `OCC(CO)(CO)CSCC1OC2OC3C(CSCC(CO)(CO)CO)OC(OC4C(CSCC(CO)(CO)CO)OC(OC5C(CSCC(CO)(CO)CO)OC(OC6C(CSCC(CO)(CO)CO)OC(OC7C(CSCC(CO)(CO)CO)OC(OC8C(CSCC(CO)(CO)CO)OC(OC9C(CSCC(CO)(CO)CO)OC(OC1C(O)C2O)C(O)C9O)C(O)C8O)C(O)C7O)C(O)C6O)C(O)C5O)C(O)C4O)C(O)C3O` (stereo not drawn) [example 18, 6-Per-deoxy-6-per(2,2-di(hydroxymethyl)-3-hydroxy-propyl)thio-γ-cyclodextin], the “concentration” value was “(4.9) μmol · kg^−1”, the “% max reversal” value amounted to 63% and the “ED50: dose producing 50% reversal” value was 2.9 µmol/kg.
In the same order, the values of `O=S(=O)([O-])CCSCC1OC2OC3C(CSCCS(=O)(=O)[O-])OC(OC4C(CSCCS(=O)(=O)[O-])OC(OC5C(CSCCS(=O)(=O)[O-])OC(OC6C(CSCCS(=O)(=O)[O-])OC(OC7C(CSCCS(=O)(=O)[O-])OC(OC8C(CSCCS(=O)(=O)[O-])OC(OC9C(CSCCS(=O)(=O)[O-])OC(OC1C(O)C2O)C(O)C9O)C(O)C8O)C(O)C7O)C(O)C6O)C(O)C5O)C(O)C4O)C(O)C3O.[Na+].[Na+].[Na+].[Na+].[Na+].[Na+].[Na+].[Na+]` (stereo not drawn) [example 17, 6-Per-deoxy-6-per(2-sulfoethyl)thio-γ-cyclodextrin, Sodium Salt] are “(1.7) μmol · kg^−1”, 106% and 0.055 µmol/kg.
